What was measured:
[1] = molecular target: T1, Avi-KRAS G12V (1-169) GppNHp/RAF1 RBD-3xFLAG (52-151) (Homo sapiens, UniProt P01116, G12V); assay: Raf1-KRAS G12V-GppNHP disruption HTRF assay (Biological Example 1); format: binding
T1 construct: Avi-KRAS G12V (1-169)
Outline: (§1)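 First, protein mix in Tris pH 7.5 buffer with NaCl, MgCl2, BSA, Tween and 10% DMSO is incubated 1 h at room temperature. Next, reagent mix is added and incubated a further 1 h at room temperature. Finally, HTRF is read and activity normalized to DMSO.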

[2] = molecular target: T2, Avi-KRAS G12D (1-169) GppNHp/RAF1 RBD-3xFLAG (52-151) (Homo sapiens, UniProt P01116, G12D); assay: Raf1-KRAS G12D-GppNHP disruption HTRF assay (Biological Example 1); format: binding
T2 construct: Avi-KRAS G12D (1-169)
T2 sequence (P01116 1-169 isoform P01116-2 G12D): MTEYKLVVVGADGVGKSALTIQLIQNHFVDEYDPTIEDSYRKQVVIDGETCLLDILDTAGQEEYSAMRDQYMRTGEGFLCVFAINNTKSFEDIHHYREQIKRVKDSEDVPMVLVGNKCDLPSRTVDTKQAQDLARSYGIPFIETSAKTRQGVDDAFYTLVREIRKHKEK
Outline: as §1

[3] = molecular target: T3, Avi-KRAS G12R (1-169) GppNHp/RAF1 RBD-3xFLAG (52-151) (Homo sapiens, UniProt P01116, G12R); assay: Raf1-KRAS G12R-GppNHP disruption HTRF assay (Biological Example 1); format: binding
T3 construct: Avi-KRAS G12R (1-169)
T3 sequence (P01116 1-169 isoform P01116-2 G12R): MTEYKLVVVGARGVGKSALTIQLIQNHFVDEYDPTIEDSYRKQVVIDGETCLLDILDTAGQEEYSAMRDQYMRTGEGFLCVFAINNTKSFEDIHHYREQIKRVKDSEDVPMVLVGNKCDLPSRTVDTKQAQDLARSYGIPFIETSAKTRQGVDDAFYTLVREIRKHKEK
Outline: as §1

[4] = molecular target: T4, Avi-KRAS WT (1-169) GppNHp/RAF1 RBD-3xFLAG (52-151) (Homo sapiens, UniProt P01116); assay: Raf1-KRAS WT-GppNHP disruption HTRF assay (Biological Example 1); format: binding
T4 construct: Avi-KRAS WT (1-169)
T4 sequence (P01116 1-169 isoform P01116-2): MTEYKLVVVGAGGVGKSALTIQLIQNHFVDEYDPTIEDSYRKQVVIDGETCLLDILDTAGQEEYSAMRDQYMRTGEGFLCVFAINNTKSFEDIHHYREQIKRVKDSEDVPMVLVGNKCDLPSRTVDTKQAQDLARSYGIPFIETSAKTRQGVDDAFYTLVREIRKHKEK
Outline: as §1

GP2d cells (KRAS G12D) = assay: Cell-based pERK HTRF assay in GP2d cell (Biological Example 2); conditions: GP2d (KRAS G12D) cells, pERK HTRF
Outline: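 Treatment with test compounds lasted one hour in DMEM containing 10% FBS, with DMSO held at 0.25%. Dilution series: 9 points, half-log spacing, highest 1 μM or 100 nM. Lysates were incubated 4–24 h at room temperature with antibody mix, then HTRF was read at 320 nm excitation.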

SW620 cells (KRAS G12V) = assay: Cell-based pERK HTRF assay in SW620 cell (Biological Example 4); conditions: Homo sapiens, SW-620, SW620 (KRAS G12V) cells, pERK HTRF
Outline: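 SW620 cells were treated for 4 h with compound in a 9-point half-log series from 1 μM top (0.25% DMSO), then lysed. Phospho-ERK was detected by HTRF with d2 and Eu cryptate antibodies after 4–24 h at room temperature, read at 615 nm emission.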

[5] = KRAS G12V, GppNHp-loaded, class symbols
[6] = KRAS G12D, GppNHp-loaded, class symbols
[7] = KRAS G12R, GppNHp-loaded, class symbols
[8] = KRAS WT, GppNHp-loaded, class symbols
[9] = KRAS G12V, GppNHp-loaded, Table 11
[10] = KRAS G12D, GppNHp-loaded, Table 11
[11] = KRAS G12R, GppNHp-loaded, Table 11
[12] = KRAS WT, GppNHp-loaded, Table 11

T1 sequence (P01116 1-169 isoform P01116-2 G12V): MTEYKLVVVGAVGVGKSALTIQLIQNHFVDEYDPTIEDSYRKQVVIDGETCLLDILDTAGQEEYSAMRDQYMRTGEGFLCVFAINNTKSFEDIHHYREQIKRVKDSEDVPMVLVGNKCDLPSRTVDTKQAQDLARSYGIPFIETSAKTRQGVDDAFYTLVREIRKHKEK

| Structure (SMILES) | IC50 [1, 5] [nM] | IC50 [2, 6] [nM] | IC50 [3, 7] [nM] | IC50 [4, 8] [nM] | IC50 (GP2d cells (KRAS G12D); GP2d, class symbols) [nM] | IC50 (SW620 cells (KRAS G12V); class symbols) [nM] | IC50 ([1]; KRAS G12V-GppNHp/RAF1 RBD HTRF) [nM] | IC50 ([2]; KRAS G12D-GppNHp/RAF1 RBD HTRF) [nM] | IC50 ([3]; KRAS G12R-GppNHp/RAF1 RBD HTRF) [nM] | IC50 ([4]; KRAS WT-GppNHp/RAF1 RBD HTRF) [nM] | IC50 (GP2d cells (KRAS G12D); GP2d) [nM] | IC50 (SW620 cells (KRAS G12V)) [nM] | IC50 [1, 9] [nM] | IC50 [2, 10] [nM] | IC50 [3, 11] [nM] | IC50 [4, 12] [nM] | IC50 (GP2d cells (KRAS G12D)) [nM] |
| --- | --- | --- | --- | --- | --- | --- | --- | --- | --- | --- | --- | --- | --- | --- | --- | --- | --- |
| CCN(C)c1nc(OC[C@@]23CCCN2C[C@H](F)C3)nc2c(F)c(-c3ccc(F)c4sc(N)c(C#N)c34)c(C(F)(F)F)cc12 (single isomer, unassigned) [Compound 196] |  |  |  |  |  |  |  |  |  |  |  | < 100 | 100 to 1000 | < 100 | < 100 | < 100 | < 100 |
| C[C@H]1C[C@H](N(C)c2nc(OC[C@@]34CCCN3C[C@H](F)C4)nc3c(F)c(-c4ccc(F)c5sc(N)c(C#N)c45)c(C(F)(F)F)cc23)CN1C(=O)C1CC1 [Compound 437] |  |  |  |  |  |  | 100 to 1000 | 100 to 1000 | 100 to 1000 | 100 to 1000 | < 100 | < 100 |  |  |  |  |  |
| CN(c1nc(OC[C@@]23CCCN2C[C@H](F)C3)nc2c(F)c(-c3ccc(F)c4sc(N)c(C#N)c34)c(C(F)(F)F)cc12)C12CC(CO)(C1)C2 [Compound 351] |  |  |  |  |  |  | 1000 to 10000 | 100 to 1000 | 100 to 1000 | 100 to 1000 | < 100 | < 100 |  |  |  |  |  |
| C[C@@H]1[C@H](N(C)c2nc(OC[C@@]34CCCN3C[C@H](F)C4)nc3c(F)c(-c4ccc(F)c5sc(N)c(C#N)c45)c(Cl)cc23)CCN1C(=O)CF [Compound 460] |  |  |  |  |  |  | 100 to 1000 | 100 to 1000 | 100 to 1000 | 100 to 1000 |  | < 100 |  |  |  |  | < 100 |
| CC1(O)CCN(c2nc(OC[C@@]34CCCN3C[C@H](F)C4)nc3c(F)c(-c4ccc(F)c5sc(N)c(C#N)c45)c(C(F)(F)F)cc23)CC1 [Compound 228] |  |  |  |  |  |  |  |  |  |  | 100 to 1000 | 100 to 1000 | 1000 to 10000 | 100 to 1000 | 1000 to 10000 | 100 to 1000 |  |

More lines, main results first:

| IC50 [1, 5] [nM] | IC50 [2, 6] [nM] | IC50 [3, 7] [nM] | IC50 [4, 8] [nM] | IC50 (GP2d cells (KRAS G12D); GP2d, class symbols) [nM] | IC50 (SW620 cells (KRAS G12V); class symbols) [nM] | IC50 ([1]; KRAS G12V-GppNHp/RAF1 RBD HTRF) [nM] | IC50 ([2]; KRAS G12D-GppNHp/RAF1 RBD HTRF) [nM] | IC50 ([3]; KRAS G12R-GppNHp/RAF1 RBD HTRF) [nM] | IC50 ([4]; KRAS WT-GppNHp/RAF1 RBD HTRF) [nM] | IC50 (GP2d cells (KRAS G12D); GP2d) [nM] | IC50 (SW620 cells (KRAS G12V)) [nM] | IC50 [1, 9] [nM] | IC50 [2, 10] [nM] | IC50 [3, 11] [nM] | IC50 [4, 12] [nM] | Structure (SMILES) | IC50 (GP2d cells (KRAS G12D)) [nM] |
| --- | --- | --- | --- | --- | --- | --- | --- | --- | --- | --- | --- | --- | --- | --- | --- | --- | --- |
| < 100 | < 100 | < 100 | < 100 | < 100 | < 100 |  |  |  |  |  |  |  |  |  |  | CCN(c1nc(OC[C@@]23CCCN2C[C@H](F)C3)nc2c(F)c(-c3ccc(F)c4sc(N)c(C#N)c34)c(C(F)(F)F)cc12)[C@H]1CCN(C(=O)N(C)C2COC2)C1 (atropisomer, axis not shown) [Compound 598] |  |
| 100 to 1000 | < 100 | < 100 | 100 to 1000 | < 100 | < 100 |  |  |  |  |  |  |  |  |  |  | CCN(c1nc(OC[C@@]23CCCN2C[C@H](F)C3)nc2c(F)c(-c3ccc(F)c4sc(N)c(C#N)c34)c(C(F)(F)F)cc12)[C@H]1CCN(C(=O)OC2CC(F)C2)C1 (stereo partly drawn) [Compound 776] |  |
|  |  |  |  |  |  | < 100 | < 100 | < 100 | < 100 | < 100 | < 100 |  |  |  |  | CCN(c1nc(OC[C@@]23CCCN2C[C@H](F)C3)nc2c(F)c(-c3ccc(F)c4sc(N)c(C#N)c34)c(C(F)(F)F)cc12)[C@H]1CCN(C(=O)CCC#N)C1 (atropisomer, axis not shown) [Compound 555] |  |
| < 100 | < 100 | < 100 | < 100 | < 100 | < 100 |  |  |  |  |  |  |  |  |  |  | CCN(c1nc(OCC23CCCN2CC(F)C3)nc2c(F)c(-c3ccc(F)c4sc(N)c(C#N)c34)c(C(F)(F)F)cc12)C1CCN(C(=O)c2cccnc2)C1 (stereo not drawn) [Compound 715] |  |
|  |  |  |  |  |  | 100 to 1000 | 100 to 1000 | 100 to 1000 | 100 to 1000 | < 100 | < 100 |  |  |  |  | N#Cc1c(N)sc2c(F)ccc(-c3c(C(F)(F)F)cc4c(N5CCc6nocc6C5)nc(OC[C@@]56CCCN5C[C@H](F)C6)nc4c3F)c12 [Compound 457] |  |
| < 100 | < 100 | < 100 | < 100 | < 100 | < 100 |  |  |  |  |  |  |  |  |  |  | CCN(c1nc(OC[C@@]23CCCN2C[C@H](F)C3)nc2c(F)c(-c3ccc(F)c4sc(N)c(C#N)c34)c(C(F)(F)F)cc12)[C@H]1C[C@H](COC)N(C(=O)OC)C1 (atropisomer, axis not shown) [Compound 718] |  |

— patent US20260042764A1, “COMPOSITIONS AND METHODS FOR INHIBITION OF KRAS” (TheRas, Inc., priority 2022, published 2026)
